Test results taken from US20260356819A1, “OXOISOINDOLINYL-SUBSTITUTED […] DERIVATIVE AND USE THEREOF” (GLUETACS THERAPEUTICS (SHANGHAI) CO., LTD., priority 2023, published 2026).

Key:
Type in all cases: cell-based
Conditions in all cases: compounds at 50 nM and 500 nM
IKZF2 = molecular target: T1, IKZF2 (Homo sapiens, UniProt Q96SW2+Q9UKS7); assay: Western blot degradation of IKZF2 in hPBMCs (24 h)
T1 construct: The supernatant was aspirated as the extracted total cell protein; endogenous in cells; host or cells: human peripheral blood mononuclear cells (hPBMCs)
T1 sequence (Q9UKS7 whole entry): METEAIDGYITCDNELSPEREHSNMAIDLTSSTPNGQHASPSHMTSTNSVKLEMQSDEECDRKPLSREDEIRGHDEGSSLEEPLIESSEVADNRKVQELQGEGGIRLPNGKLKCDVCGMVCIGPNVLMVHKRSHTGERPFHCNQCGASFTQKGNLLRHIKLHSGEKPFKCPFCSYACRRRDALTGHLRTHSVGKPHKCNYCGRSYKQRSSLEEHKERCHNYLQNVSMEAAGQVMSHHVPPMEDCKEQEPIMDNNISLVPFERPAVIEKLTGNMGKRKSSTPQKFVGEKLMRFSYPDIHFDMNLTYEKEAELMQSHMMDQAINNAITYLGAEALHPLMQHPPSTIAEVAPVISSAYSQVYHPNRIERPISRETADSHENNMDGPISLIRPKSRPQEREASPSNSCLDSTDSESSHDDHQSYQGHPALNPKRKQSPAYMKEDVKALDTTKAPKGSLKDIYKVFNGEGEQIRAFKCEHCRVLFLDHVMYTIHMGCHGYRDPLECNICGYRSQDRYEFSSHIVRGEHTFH
T1 sequence (Q96SW2 whole entry): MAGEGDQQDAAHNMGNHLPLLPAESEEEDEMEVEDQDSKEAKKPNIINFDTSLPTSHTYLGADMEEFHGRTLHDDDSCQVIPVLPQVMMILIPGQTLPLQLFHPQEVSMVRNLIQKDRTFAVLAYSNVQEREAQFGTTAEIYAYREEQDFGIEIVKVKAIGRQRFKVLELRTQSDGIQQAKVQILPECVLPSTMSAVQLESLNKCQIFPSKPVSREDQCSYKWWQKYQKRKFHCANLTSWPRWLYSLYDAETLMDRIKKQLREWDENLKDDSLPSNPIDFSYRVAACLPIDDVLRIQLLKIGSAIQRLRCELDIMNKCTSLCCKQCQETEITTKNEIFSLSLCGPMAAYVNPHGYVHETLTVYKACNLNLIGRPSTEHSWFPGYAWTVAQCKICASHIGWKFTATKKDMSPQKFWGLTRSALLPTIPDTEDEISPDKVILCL
T1 sequence (Q16531 whole entry partner): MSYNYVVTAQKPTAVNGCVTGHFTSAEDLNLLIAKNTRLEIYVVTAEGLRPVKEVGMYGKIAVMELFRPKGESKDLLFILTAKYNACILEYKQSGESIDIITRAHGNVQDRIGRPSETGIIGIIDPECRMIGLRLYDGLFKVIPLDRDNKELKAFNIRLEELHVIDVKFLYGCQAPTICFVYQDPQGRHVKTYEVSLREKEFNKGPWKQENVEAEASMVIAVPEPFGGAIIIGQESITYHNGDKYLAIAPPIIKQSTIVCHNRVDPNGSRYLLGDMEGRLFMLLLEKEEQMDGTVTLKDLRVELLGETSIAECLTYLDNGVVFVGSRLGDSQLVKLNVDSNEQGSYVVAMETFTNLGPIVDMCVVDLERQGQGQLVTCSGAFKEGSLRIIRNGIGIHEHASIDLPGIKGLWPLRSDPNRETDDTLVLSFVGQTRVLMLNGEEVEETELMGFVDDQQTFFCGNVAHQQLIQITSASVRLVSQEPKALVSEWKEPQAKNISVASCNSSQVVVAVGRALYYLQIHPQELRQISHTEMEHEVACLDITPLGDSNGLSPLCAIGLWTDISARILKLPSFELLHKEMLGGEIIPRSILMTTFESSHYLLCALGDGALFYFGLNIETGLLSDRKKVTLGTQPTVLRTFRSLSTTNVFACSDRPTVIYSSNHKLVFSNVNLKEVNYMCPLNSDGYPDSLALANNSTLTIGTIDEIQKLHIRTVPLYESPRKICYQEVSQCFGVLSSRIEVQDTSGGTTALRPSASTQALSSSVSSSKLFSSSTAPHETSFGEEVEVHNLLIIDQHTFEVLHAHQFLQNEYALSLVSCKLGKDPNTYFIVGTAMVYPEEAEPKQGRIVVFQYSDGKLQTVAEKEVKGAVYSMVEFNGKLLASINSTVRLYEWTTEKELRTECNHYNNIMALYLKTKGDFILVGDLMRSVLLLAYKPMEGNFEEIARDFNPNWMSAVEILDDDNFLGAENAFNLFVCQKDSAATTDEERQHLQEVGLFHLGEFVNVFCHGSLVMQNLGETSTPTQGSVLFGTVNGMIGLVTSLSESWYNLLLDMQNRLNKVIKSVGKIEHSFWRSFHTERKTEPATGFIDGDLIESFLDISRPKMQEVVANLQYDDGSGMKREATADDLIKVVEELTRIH
Protocol: (§1) Conventional Western blot assay was performed to evaluate the effects of the compounds of the present disclosure on the expression of target proteins in cells. • (1) Cell Seeding and Protein Harvesting: Human peripheral blood mononuclear cells (hPBMCs) at a density of 1×10^6 cells/mL were thawed according to the PBMC Recovery Protocol (Milecell Biotechnologies Inc, Shanghai). The cells were then treated with the compounds of the present disclosure (including the compounds listed in Table 1, and the Examples 1-498 compounds) at concentrations of 50 nM and 500 nM. Controls included a negative control (DMSO) and a positive control (the commercial immunomodulatory drug lenalidomide), both processed following the identical experimental protocol as the compounds of the present disclosure. After 24 hours of compounds treatment, cells were harvested and lysed in RIPA protein lysate containing protease inhibitors on ice for 30 min, followed by centrifugation. The supernatant was aspirated as the extracted total cell protein. The protein concentration of the supernatant was determined using the conventional BCA (Bicinchoninic Acid) assay. • (2) To the collected supernatant, 5×SDS sample loading buffer was added, followed by denaturation at 95 °C for 5 minutes. The denatured samples were then separated by SDS-PAGE electrophoresis on a polyacrylamide gel. Proteins were transferred to a nitrocellulose membrane (0.45 μm NC membrane), blocked with blocking buffer at room temperature for 1 hour, and subjected to antibody incubation and development procedures according to the antibody manufacturer's instructions (Cell Signaling Technology).
(§2) Half-Maximal Degradation Concentration value (the drug concentration required for degrading proteins by 50%, abbreviated as DC50) reads method: comparing the grayscale values of Western blot bands from drug-treated samples with those from blank DMSO-treated controls, and identifying the drug concentration range at which the grayscale value is half that of the DMSO-treated control bands.
(§3) DC50 values can be calculated using ImageJ software to measure grayscale values of Western blot bands from drug-treated samples. The concentration-response curve is fitted to estimate the drug concentration corresponding to half the grayscale value.
(§4) Target protein remaining (%) refers to the percentage of target protein remaining in cells after treatment with protein degrader compounds.
(§5) Calculation method for target protein remaining (%): Use ImageJ software to measure grayscale values of Western blot bands from drug (protein degrader)-treated samples. The grayscale value of drug-treated bands is divided by that of internal control protein bands, and the resulting quotient is normalized to obtain the relative percentage of remaining target protein after protein degrader treatment.
(§6) Target protein degradation rate (%)=1−target protein remaining (%).

WEE1 = molecular target: T2, WEE1 (Homo sapiens, UniProt P30291+Q96SW2); assay: Western blot degradation of WEE1 in hPBMCs (24 h)
T2 construct: The supernatant was aspirated as the extracted total cell protein; endogenous in cells; host or cells: human peripheral blood mononuclear cells (hPBMCs)
T2 sequence (P30291 whole entry): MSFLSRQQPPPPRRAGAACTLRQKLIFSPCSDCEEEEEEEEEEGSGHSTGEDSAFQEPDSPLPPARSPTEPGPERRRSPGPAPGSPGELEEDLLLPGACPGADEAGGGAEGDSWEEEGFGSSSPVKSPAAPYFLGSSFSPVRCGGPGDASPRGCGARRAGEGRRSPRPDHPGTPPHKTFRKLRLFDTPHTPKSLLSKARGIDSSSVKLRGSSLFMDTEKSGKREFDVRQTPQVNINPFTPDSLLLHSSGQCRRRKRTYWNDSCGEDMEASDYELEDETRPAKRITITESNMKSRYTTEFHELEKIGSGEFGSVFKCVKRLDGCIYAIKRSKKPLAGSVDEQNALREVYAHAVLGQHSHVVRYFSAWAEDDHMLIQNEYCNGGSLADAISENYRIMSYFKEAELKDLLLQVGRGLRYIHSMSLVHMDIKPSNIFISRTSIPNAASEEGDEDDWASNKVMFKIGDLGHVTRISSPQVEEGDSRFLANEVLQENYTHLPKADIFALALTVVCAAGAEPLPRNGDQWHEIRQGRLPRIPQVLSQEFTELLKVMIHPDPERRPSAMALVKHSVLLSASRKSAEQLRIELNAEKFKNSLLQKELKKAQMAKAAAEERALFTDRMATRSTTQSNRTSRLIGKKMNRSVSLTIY
T2 sequence (Q96SW2 whole entry): as the sequence (Q96SW2 whole entry) above
T2 sequence (Q16531 whole entry partner): as the sequence (Q16531 whole entry partner) above
Protocol: as §1, §2, §3, §4, §5, §6

GSPT1 = molecular target: T3, GSPT1 (Homo sapiens, UniProt P15170+Q96SW2); assay: Western blot degradation of GSPT1 in hPBMCs (24 h)
T3 construct: The supernatant was aspirated as the extracted total cell protein; endogenous in cells; host or cells: human peripheral blood mononuclear cells (hPBMCs)
Protocol: as §1, §2, §3, §4, §5, §6

CK1α = molecular target: T4, CK1α (Homo sapiens, UniProt P48729+Q96SW2); assay: Western blot degradation of CK1α in hPBMCs (24 h)
T4 construct: The supernatant was aspirated as the extracted total cell protein; endogenous in cells; host or cells: human peripheral blood mononuclear cells (hPBMCs)
T4 sequence (P48729 whole entry): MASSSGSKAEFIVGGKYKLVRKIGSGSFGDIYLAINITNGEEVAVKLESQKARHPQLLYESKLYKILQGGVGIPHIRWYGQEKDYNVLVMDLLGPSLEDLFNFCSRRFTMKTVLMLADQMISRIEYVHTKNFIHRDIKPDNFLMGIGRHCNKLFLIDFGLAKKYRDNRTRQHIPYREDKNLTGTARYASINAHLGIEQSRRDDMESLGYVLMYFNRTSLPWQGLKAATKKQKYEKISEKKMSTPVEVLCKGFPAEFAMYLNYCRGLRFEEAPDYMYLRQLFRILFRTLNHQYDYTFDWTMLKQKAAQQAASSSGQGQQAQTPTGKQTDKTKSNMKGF
T4 sequence (Q96SW2 whole entry): as the sequence (Q96SW2 whole entry) above
T4 sequence (Q16531 whole entry partner): as the sequence (Q16531 whole entry partner) above
Protocol: as §1, §2, §3, §4, §5, §6

IKZF3 = molecular target: T5, IKZF3 (Homo sapiens, UniProt Q96SW2+Q9UKT9); assay: Western blot degradation of IKZF3 in hPBMCs (24 h)
T5 construct: The supernatant was aspirated as the extracted total cell protein; endogenous in cells; host or cells: human peripheral blood mononuclear cells (hPBMCs)
T5 sequence (Q9UKT9 whole entry): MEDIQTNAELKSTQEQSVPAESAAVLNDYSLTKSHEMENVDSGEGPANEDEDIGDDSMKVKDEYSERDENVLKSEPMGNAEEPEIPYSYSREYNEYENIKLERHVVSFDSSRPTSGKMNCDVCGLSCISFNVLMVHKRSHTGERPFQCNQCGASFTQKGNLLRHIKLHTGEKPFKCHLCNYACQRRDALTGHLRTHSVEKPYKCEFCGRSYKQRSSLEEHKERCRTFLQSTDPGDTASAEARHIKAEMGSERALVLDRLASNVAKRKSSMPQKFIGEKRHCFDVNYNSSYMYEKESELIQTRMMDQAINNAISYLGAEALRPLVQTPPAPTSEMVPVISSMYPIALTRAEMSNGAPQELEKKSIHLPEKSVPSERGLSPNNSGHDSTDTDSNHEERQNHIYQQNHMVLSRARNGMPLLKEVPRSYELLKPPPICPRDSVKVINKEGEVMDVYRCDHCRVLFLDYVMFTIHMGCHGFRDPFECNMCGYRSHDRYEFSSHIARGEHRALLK
T5 sequence (Q96SW2 whole entry): as the sequence (Q96SW2 whole entry) above
T5 sequence (Q16531 whole entry partner): as the sequence (Q16531 whole entry partner) above
Protocol: as §1, §2, §3, §4, §5, §6

IKZF1 = molecular target: T6, IKZF1 (Homo sapiens, UniProt Q13422+Q96SW2); assay: Western blot degradation of IKZF1 in hPBMCs (24 h)
T6 construct: The supernatant was aspirated as the extracted total cell protein; endogenous in cells; host or cells: human peripheral blood mononuclear cells (hPBMCs)
T6 sequence (Q13422 whole entry): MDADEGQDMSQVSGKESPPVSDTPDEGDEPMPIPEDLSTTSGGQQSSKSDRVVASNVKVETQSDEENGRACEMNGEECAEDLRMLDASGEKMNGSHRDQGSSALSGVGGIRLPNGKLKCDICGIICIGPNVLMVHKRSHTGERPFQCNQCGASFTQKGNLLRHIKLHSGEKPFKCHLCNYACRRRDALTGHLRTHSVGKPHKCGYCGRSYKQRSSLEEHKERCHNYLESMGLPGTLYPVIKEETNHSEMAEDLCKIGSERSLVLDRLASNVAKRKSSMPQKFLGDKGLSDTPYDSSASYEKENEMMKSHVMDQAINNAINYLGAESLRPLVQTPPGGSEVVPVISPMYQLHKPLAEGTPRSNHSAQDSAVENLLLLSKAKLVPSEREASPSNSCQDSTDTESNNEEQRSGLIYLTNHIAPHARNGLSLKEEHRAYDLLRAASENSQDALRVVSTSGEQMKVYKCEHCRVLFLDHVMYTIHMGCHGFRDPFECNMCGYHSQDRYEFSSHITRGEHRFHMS
T6 sequence (Q96SW2 whole entry): as the sequence (Q96SW2 whole entry) above
T6 sequence (Q16531 whole entry partner): as the sequence (Q16531 whole entry partner) above
Protocol: as §1, §2, §3, §4, §5, §6

SMILES	IKZF2 substrate protein remaining % (IKZF2)	WEE1 substrate protein remaining % (WEE1)	GSPT1 substrate protein remaining % (GSPT1)	CK1α substrate protein remaining % (CK1α)	IKZF3 substrate protein remaining % (IKZF3)	IKZF1 substrate protein remaining % (IKZF1)
O=C1CCN(N2C(=O)c3ccc(CN4CCN(c5cccc(Cl)c5Cl)CC4)cc3C2=O)C(=O)N1 [GT-04854, 5-((4-(2,3-dichlorophenyl)piperazin-1-yl)methyl)-2-(2,4-dioxotetrahydropyrimidin-1(2H)-yl)isoindoline-1,3-dione]	A (0% ≤ substrate protein remaining % ≤80%)	A (0% ≤ substrate protein remaining % ≤80%)	A (0% ≤ substrate protein remaining % ≤80%)	B (80%< substrate protein remaining % ≤100%)	B (80%< substrate protein remaining % ≤100%)	A (0% ≤ substrate protein remaining % ≤80%)
O=C1CCN(N2Cc3cc(CN4CCC(c5noc6cc(F)ccc56)CC4)ccc3C2=O)C(=O)N1 [GT-04864, 1-(5-((4-(6-fluorobenzo[d]isoxazol-3-yl)piperidin-1-yl)methyl)-1-oxoisoindolin-2-yl)dihydropyrimidine-2,4(1H,3H)-dione]	B (80%< substrate protein remaining % ≤100%)	B (80%< substrate protein remaining % ≤100%)	A (0% ≤ substrate protein remaining % ≤80%)	B (80%< substrate protein remaining % ≤100%)	B (80%< substrate protein remaining % ≤100%)	A (0% ≤ substrate protein remaining % ≤80%)
O=C1CCN(N2Cc3cc(CN4CCN(c5nsc6ccccc56)CC4)ccc3C2=O)C(=O)N1 [GT-04865, 1-(5-((4-(benzo[d]isothiazol-3-yl)piperazin-1-yl)methyl)-1-oxoisoindolin-2-yl)dihydropyrimidine-2,4(1H,3H)-dione]	B (80%< substrate protein remaining % ≤100%)	B (80%< substrate protein remaining % ≤100%)	A (0% ≤ substrate protein remaining % ≤80%)	B (80%< substrate protein remaining % ≤100%)	B (80%< substrate protein remaining % ≤100%)	A (0% ≤ substrate protein remaining % ≤80%)
O=C1CCN(N2Cc3cc(CN4CCN(C(c5ccccc5)c5ccncc5)CC4)ccc3C2=O)C(=O)N1 (stereo not shown) [GT-04891, 1-(1-oxo-5-((4-(phenyl(pyridin-4-yl)methyl)piperazin-1-yl)methyl)isoindolin-2-yl)dihydropyrimidine-2,4(1H,3H)-dione]	A (0% ≤ substrate protein remaining % ≤80%)	B (80%< substrate protein remaining % ≤100%)	A (0% ≤ substrate protein remaining % ≤80%)	B (80%< substrate protein remaining % ≤100%)	B (80%< substrate protein remaining % ≤100%)	A (0% ≤ substrate protein remaining % ≤80%)
O=C1CCN(N2Cc3cc(CN4CCN(C(c5ccc(Cl)cc5)c5ccc(Cl)cc5)CC4)ccc3C2=O)C(=O)N1 [GT-04895, 1-(5-((4-(bis(4-chlorophenyl)methyl)piperazin-1-yl)methyl)-1-oxoisoindolin-2-yl)dihydropyrimidine-2,4(1H,3H)-dione]	A (0% ≤ substrate protein remaining % ≤80%)	B (80%< substrate protein remaining % ≤100%)	A (0% ≤ substrate protein remaining % ≤80%)	B (80%< substrate protein remaining % ≤100%)	B (80%< substrate protein remaining % ≤100%)	A (0% ≤ substrate protein remaining % ≤80%)
O=C1CCN(N2Cc3cc(CN4CCN(c5cccc(C(F)(F)F)n5)CC4)ccc3C2=O)C(=O)N1 [GT-05175, 1-(1-oxo-5-((4-(6-(trifluoromethyl)pyridin-2-yl)piperazin-1-yl)methyl)isoindolin-2-yl)dihydropyrimidine-2,4(1H,3H)-dione]	B (80%< substrate protein remaining % ≤100%)	A (0% ≤ substrate protein remaining % ≤80%)	A (0% ≤ substrate protein remaining % ≤80%)	–	–	B (80%< substrate protein remaining % ≤100%)
O=C1CCN(N2C(=O)c3ccc(CN4CCN(c5cccc(Cl)n5)CC4)cc3C2=O)C(=O)N1 [GT-05353, 5-((4-(6-chloropyridin-2-yl)piperazin-1-yl)methyl)-2-(2,4-dioxotetrahydropyrimidin-1(2H)-yl)isoindoline-1,3-dione]	B (80%< substrate protein remaining % ≤100%)	–	A (0% ≤ substrate protein remaining % ≤80%)	B (80%< substrate protein remaining % ≤100%)	B (80%< substrate protein remaining % ≤100%)	B (80%< substrate protein remaining % ≤100%)
O=C1CCN(N2C(=O)c3ccc(CN4CCN(c5ncccc5F)CC4)cc3C2=O)C(=O)N1 [GT-05355, 2-(2,4-dioxotetrahydropyrimidin-1(2H)-yl)-5-((4-(3-fluoropyridin-2-yl)piperazin-1-yl)methyl)isoindoline-1,3-dione]	–	B (80%< substrate protein remaining % ≤100%)	A (0% ≤ substrate protein remaining % ≤80%)	B (80%< substrate protein remaining % ≤100%)	B (80%< substrate protein remaining % ≤100%)	B (80%< substrate protein remaining % ≤100%)
O=C1CCN(N2Cc3cc(CN4CCN(c5nccc(Cl)c5Br)CC4)ccc3C2=O)C(=O)N1 [GT-05432, 1-(5-((4-(3-bromo-4-chloropyridin-2-yl)piperazin-1-yl)methyl)-1-oxoisoindolin-2-yl)dihydropyrimidine-2,4(1H,3H)-dione]	B (80%< substrate protein remaining % ≤100%)	A (0% ≤ substrate protein remaining % ≤80%)	–	B (80%< substrate protein remaining % ≤100%)	B (80%< substrate protein remaining % ≤100%)	B (80%< substrate protein remaining % ≤100%)
O=C1CCN(N2Cc3cc(CN4CCN(c5ncc(C(F)(F)F)cc5Cl)CC4)ccc3C2=O)C(=O)N1 [GT-05433, 1-(5-((4-(3-chloro-5-(trifluoromethyl)pyridin-2-yl)piperazin-1-yl)methyl)-1-oxoisoindolin-2-yl)dihydropyrimidine-2,4(1H,3H)-dione]	–	A (0% ≤ substrate protein remaining % ≤80%)	A (0% ≤ substrate protein remaining % ≤80%)	B (80%< substrate protein remaining % ≤100%)	B (80%< substrate protein remaining % ≤100%)	B (80%< substrate protein remaining % ≤100%)
O=C1CCN(N2Cc3cc(CN4CCN(c5cccnc5)CC4)ccc3C2=O)C(=O)N1 [GT-05434, 1-(1-oxo-5-((4-(pyridin-3-yl)piperazin-1-yl)methyl)isoindolin-2-yl)dihydropyrimidine-2,4(1H,3H)-dione]	–	A (0% ≤ substrate protein remaining % ≤80%)	A (0% ≤ substrate protein remaining % ≤80%)	–	B (80%< substrate protein remaining % ≤100%)	B (80%< substrate protein remaining % ≤100%)
O=C1CCN(N2Cc3cc(CN4CCN(c5ccncc5Br)CC4)ccc3C2=O)C(=O)N1 [GT-05439, 1-(5-((4-(3-bromopyridin-4-yl)piperazin-1-yl)methyl)-1-oxoisoindolin-2-yl)dihydropyrimidine-2,4(1H,3H)-dione]	B (80%< substrate protein remaining % ≤100%)	A (0% ≤ substrate protein remaining % ≤80%)	–	–	–	B (80%< substrate protein remaining % ≤100%)
